Measured values from PubChem BioAssay (NCI).
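GI50 = concentration required for 50% inhibition of growth. TGI marks complete inhibition of growth.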

Columns and labels:
Assay in all cases: inhibition of tumour cell growth, NCI panel, 384-well format
[1] = tested on: SF-268 CNS
[2] = tested on: SR leukemia
[3] = tested on: HCT-15 colon
[4] = tested on: MDA-MB-231 breast
[5] = tested on: HOP-92 NSCLC
[6] = tested on: HL-60(TB) leukemia
[7] = tested on: MALME-3M melanoma
[8] = tested on: RXF 393 renal
[9] = tested on: NCI-H460 NSCLC
[10] = tested on: SN12C renal
[11] = tested on: HCC-2998 colon
[12] = tested on: SW-620 colon
[13] = tested on: T-47D breast
[14] = tested on: UACC-62 melanoma
[15] = tested on: MDA-MB-468 breast
[16] = tested on: LOX IMVI melanoma
[17] = tested on: CAKI-1 renal
[18] = tested on: OVCAR-4 ovarian
[19] = tested on: HT29 colon
[20] = tested on: SK-MEL-2 melanoma
[21] = tested on: PC-3 prostate
[22] = tested on: ACHN renal
[23] = tested on: SK-MEL-5 melanoma
[24] = tested on: OVCAR-3 ovarian
[25] = tested on: MOLT-4 leukemia
[26] = tested on: OVCAR-8 ovarian
[27] = tested on: UACC-257 melanoma
[28] = tested on: COLO 205 colon
[29] = tested on: A549 NSCLC
[30] = tested on: BT-549 breast
[31] = tested on: A498 renal
[32] = tested on: K-562 leukemia
[33] = tested on: IGROV1 ovarian
[34] = tested on: NCI-H23 lung
[35] = tested on: DU-145 prostate
[36] = tested on: SK-OV-3 ovarian
[37] = tested on: TK-10 renal
[38] = tested on: KM12 colon
[39] = tested on: HCT-116 colon
[40] = tested on: CCRF-CEM leukemia
[41] = tested on: MCF7 breast
[42] = tested on: UO-31 renal
[43] = tested on: NCI-H322M lung
[44] = tested on: SNB-19 CNS
[45] = tested on: OVCAR-5 ovarian
[46] = tested on: SF-539 CNS
[47] = tested on: U251 glioblastoma
[48] = tested on: NCI-H226 lung
[49] = tested on: M14 melanoma
[50] = tested on: MDA-MB-435 melanoma
[51] = tested on: RPMI-8226 leukemia
[52] = tested on: SK-MEL-28 melanoma
[53] = tested on: SF-295 CNS
[54] = tested on: HOP-62 NSCLC
[55] = tested on: 786-0 renal
[56] = tested on: NCI-H522 lung
[57] = tested on: NCI/ADR-RES ovarian

## CC1(C)CCC(c2ccc(Cl)cc2)=C(CN2CCN(c3ccc(C(=O)NS(=O)(=O)c4ccc(N[C@H](CCN5CCOCC5)CSc5ccccc5)c(S(=O)(=O)C(F)(F)F)c4)cc3)CC2)C1
[1]
  GI50: 1880 nM
  TGI: 3360 nM
[2]
  GI50: 365 nM
  TGI: 2040 nM
[3]
  GI50: 1750 nM
  TGI: 3180 nM
[4]
  GI50: 316 nM
  TGI: 1170 nM
[5]
  GI50: 135 nM
  TGI: 771 nM
[6]
  GI50: 195 nM
  TGI: 893 nM
[7]
  GI50: 1870 nM
  TGI: 3270 nM
[8]
  GI50: 17.4 nM
  TGI: 325 nM
[9]
  GI50: 1840 nM
  TGI: 3280 nM
[10]
  GI50: 2130 nM
  TGI: 3590 nM
[11]
  GI50: 150 nM
  TGI: 765 nM
[12]
  GI50: 940 nM
  TGI: 2120 nM
[13]
  GI50: 1870 nM
  TGI: 3520 nM
[14]
  GI50: 1800 nM
  TGI: 3190 nM
[15]
  GI50: 1590 nM
  TGI: 3080 nM
[16]
  GI50: 1950 nM
  TGI: 3370 nM
[17]
  GI50: 2020 nM
  TGI: 3460 nM
[18]
  GI50: 1270 nM
  TGI: 2790 nM
[19]
  GI50: 1840 nM
  TGI: 3270 nM
[20]
  GI50: 1230 nM
  TGI: 2480 nM
[21]
  GI50: 1740 nM
  TGI: 3120 nM
[22]
  GI50: 1800 nM
  TGI: 3200 nM
[23]
  GI50: 1660 nM
  TGI: 3020 nM
[24]
  GI50: 1560 nM
  TGI: 2900 nM
[25]
  GI50: 22.1 nM
  TGI: 64 nM
[26]
  GI50: 1750 nM
  TGI: 3140 nM
[27]
  GI50: 1590 nM
  TGI: 3010 nM
[28]
  GI50: 1250 nM
  TGI: 2510 nM
[29]
  GI50: 1630 nM
  TGI: 3120 nM
[30]
  GI50: 1810 nM
  TGI: 3230 nM
[31]
  GI50: 1160 nM
  TGI: 2390 nM
[32]
  GI50: 1940 nM
  TGI: 3350 nM
[33]
  GI50: 1560 nM
  TGI: 2990 nM
[34]
  GI50: 1730 nM
  TGI: 3130 nM
[35]
  GI50: 2300 nM
  TGI: 4790 nM
[36]
  GI50: 1960 nM
  TGI: 3480 nM
[37]
  GI50: 1660 nM
  TGI: 3050 nM
[38]
  GI50: 1760 nM
  TGI: 3230 nM
[39]
  GI50: 1600 nM
  TGI: 2990 nM
[40]
  GI50: 69.8 nM
  TGI: 198 nM
[41]
  GI50: 1880 nM
  TGI: 4580 nM
[42]
  GI50: 1370 nM
  TGI: 2670 nM
[43]
  GI50: 1880 nM
  TGI: 3670 nM
[44]
  GI50: 2170 nM
  TGI: 4020 nM
[45]
  GI50: 1460 nM
  TGI: 2840 nM
[46]
  GI50: 1720 nM
  TGI: 3110 nM
[47]
  GI50: 1910 nM
  TGI: 3390 nM
[48]
  GI50: 1100 nM
  TGI: 2310 nM
[49]
  GI50: 1830 nM
  TGI: 3240 nM
[50]
  GI50: 1940 nM
  TGI: 3390 nM
[51]
  GI50: 82.1 nM
  TGI: 207 nM
[52]
  GI50: 1930 nM
  TGI: 3390 nM
[53]
  GI50: 1750 nM
  TGI: 3140 nM
[54]
  GI50: 2030 nM
  TGI: 3490 nM
[55]
  GI50: 1620 nM
  TGI: 3030 nM
[56]
  GI50: 1850 nM
  TGI: 3650 nM
[57]
  GI50: 2800 nM
  TGI: 7690 nM
